Measured values published in patent US8058285B2, “Substituted pyrido [3′, 2′: 4, 5] thieno [3, 2-D] pyrimidines and pyrido [3′, 2′: 4, 5] furo [3, 2-D] pyrimidines used as inhibitors of the PDE-4 and/or the release of TNF-ALPHA” (The Medicines Company (Leipzig) GmbH, priority 2004, dated 2011).

Assays:
[1] = target: T1, PDE-4A (Homo sapiens, UniProt P27815); assay: PDE-4A inhibitory assay (SPA); type: biochemical
T1 construct: PDE-4A catalytic domain comprising amino acids 342-704; made in house; host or cells: Escherichia coli
T1 sequence (P27815 342-704): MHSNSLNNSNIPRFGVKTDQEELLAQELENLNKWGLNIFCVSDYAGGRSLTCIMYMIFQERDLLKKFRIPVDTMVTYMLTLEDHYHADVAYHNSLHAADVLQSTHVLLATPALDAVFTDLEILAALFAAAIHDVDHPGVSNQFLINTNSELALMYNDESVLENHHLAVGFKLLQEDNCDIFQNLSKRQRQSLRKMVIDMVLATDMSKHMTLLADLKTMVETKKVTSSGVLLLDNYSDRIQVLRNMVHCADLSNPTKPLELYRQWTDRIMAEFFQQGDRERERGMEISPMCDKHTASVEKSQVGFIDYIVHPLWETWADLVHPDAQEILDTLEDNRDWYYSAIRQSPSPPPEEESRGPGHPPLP
In short: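 Human recombinant PDE-4A catalytic domain (aa 342-704), E. coli-expressed. SPA with 1 μM [^3H]-cAMP substrate in 100 mM Tris-HCl pH 7.5, 5 mM MgCl2, 1% DMSO; 20 min at 22° C. Non-specific activity with 100 μM rolipram subtracted.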

[2] = tested on: TNFα release; assay: LPS-induced TNFα release in diluted human blood (ELISA); type: cell-based; details: LPS 1 μg/ml, human blood diluted 1:5, 24 h; read-out: IC50 value in the TNFα inhibitory assay
Excerpt: Isolated leukocytes can be stimulated for the release of cytokines in different ways. Lipopolysaccharides (LPS) are a stimulus for the investigation of the TNFα release. LPS is part of bacterial cell walls and is released when the bacteria are killed (by antibiotics or the natural immune system). LPS stimulates in particular the activity of phagocytizing leukocytes (tissue macrophages, granulocytes, monocytes) and causes the infiltration of leukocytes from the peripheral blood into the affected tissue. A cytokine of special significance for these mechanisms is TNFα which is secreted in large amounts by the affected cells. The main source are here monocytes and macrophages. TNFα initiates and prolongs the inflammatory process in cooperation with other mediators.
For the investigation of the effect on the LPS-induced TNFα release a method was used which was described by Marx, D., Tassabehji, M., Heer, S., Hüttenbrink, K.-B., and I. Szelenyi, Pulmonary Pharmacology & Therapeutics (2002) 15, 7-15. The method is briefly: Human blood was taken from various donors, rendered incoagulable by the addition of 10 mM Na citrate and diluted 1:5 with RPMI 1640 cell culture medium. The test substances were added to the blood samples at various concentrations. 15 min later, the leukocytes were stimulated by the addition of lipopolysaccharides (LPS) from Salmonella abortus equi at a final concentration of 1 μg/ml. After the incubation of the test batches at 37° C. and under 5% CO2 in a water-saturated air for 24 h, the blood was centrifuged and the TNFα concentration in the cell-free supernatant was accurately measured using a purchasable ELISA (BD Biosciences) according to the manufacturer's instructions.

[3] = tested on: PDE-4; details: cited from earlier work
[4] = tested on: murine neuroblastoma cell line N2a; assay: Induction of axon growth in N2a cells; type: cell-based; details: 1 μM in the test batch, after 72 h, listed as 7-(3,4-dimethoxyphenyl)-4-ethoxy-9-methyl-2-piperazin-1-yl-pyrido[3′,2′:4,5]-thi
Excerpt: The inventors have tested some PDE4 inhibitors according to the invention for induction of axon growth with the murine neuroblastoma cell line N2a. It turned out that in particular the substances 4-ethoxy-9-ethyl-7-(3,4-methylenedioxyphenyl)-2-piperazin-1-yl-pyrido[3′,2′:4,5]thieno[3,2-d]-pyrimidine and 7-(3,4-dimethoxyphenyl)-4-ethoxy-9-methyl-2-piperazin-1-yl-pyrido[3′,2′:4,5]thieno[3,2-d]pyrimidine hydrochloride were able to induce the growth of long processes (“axons”) having a length of up to […] at concentrations of 1 μM in the test batch after 72 h (FIGS. 1a and 1b).

[5] = tested on: CLL cells; assay: Cytotoxicity on CLL cells, formazan reduction assay (MTT test); details: 1 μM, 24 h incubation of the patient's blood, primary CLL
Method: The positive control used was fludarabine which is employed for CLL as a standard chemotherapeutic agent.
The cytotoxicity of the CLL cells was determined by means of a commercially available formazan reduction assay (MTT test) after 24 h of incubation of the patient's blood with the active substances.

| Structure (SMILES) | melting point | IC50 [1] | IC50 [2] | also measured |
| --- | --- | --- | --- | --- |
| CCOc1nc(N2CCNCC2)c2sc3nc(-c4ccccc4)nc(C)c3c2n1 [Example 2, 2-ethoxy-9-methyl-4-piperazin-1-yl-7-phenyl-thieno[2,3-d:4,5-d′]dipyrimidine] | > 310 °C | – | – | – |
| CCSc1nc(N2CCNCC2)c2sc3nc(-c4ccccc4)cc(C)c3c2n1 [Example 13, 2-ethylthio-9-methyl-7-phenyl-4-piperazin-1-yl-pyrido-[3′,2′:4,5]thieno[3,2-d]pyrimidine] | 150 to 154 °C | – | – | – |
| CCS(=O)(=O)c1nc(N2CCNCC2)c2sc3nc(-c4ccccc4)cc(C)c3c2n1 [Example 15, 2-ethylsulfonyl-9-methyl-7-phenyl-4-piperazin-1-yl-pyrido-[3′,2′:4,5]thieno[3,2-d]pyrimidine] | 190 °C (dec.) | – | – | – |
| Cc1cc(-c2ccccc2)nc2sc3c(N4CCNCC4)nc(OCCO)nc3c12 [2-(2-Hydroxy-ethoxy)-9-methyl-7-phenyl-4-(piperazin-1-yl)-pyrido[3′,2′:4,5]thieno[3,2-d]pyrimidine] | – | 0.002 to 0.05 µM | < 2 µM | – |
| O=C(Nc1c(Cl)cncc1Cl)c1ccc(OC(F)F)c(OCC2CC2)c1 [roflumilast] | – | – | – | IC50 [3]: 0.0008 µM |
| CCOc1nc(N2CCNCC2)c2sc3nc(C)c(Cc4ccc([N+](=O)[O-])cc4)c(C)c3c2n1 [2-Ethoxy-7,9-dimethyl-8-(4-nitro-benzyl)-4-(piperazin-1-yl)-pyrido[3′,2′:4,5]thieno[3,2-d]pyrimidine] | – | 0.002 to 0.05 µM | < 2 µM | – |
| CCOc1nc(N2CCNCC2)nc2c1sc1nc(C)c(Cc3ccc([N+](=O)[O-])cc3)c(C)c12 [4-Ethoxy-7,9-dimethyl-8-(4-nitro-benzyl)-2-(piperazin-1-yl)-pyrido[3′,2′:4,5]thieno[3,2-d]pyrimidine] | – | 0.002 to 0.05 µM | < 2 µM | – |
| CCOc1nc(N2CCNCC2)nc2c1sc1nc(-c3ccc(-c4ccoc4)cc3)nc(C)c12 [4-Ethoxy-7-(4-[3-furyl]-phenyl)-9-methyl-2-piperazin-1-yl-thieno[2,3-d:4,5-d′]dipyrimidine] | – | < 0.002 µM | < 2 µM | – |
| CCOc1nc(N2CCNCC2)c2sc3nc(-c4ccc(OC)cc4)cc(C)c3c2n1 [2-Ethoxy-7-(4-methoxy-phenyl)-9-methyl-4-(piperazin-1-yl)-pyrido[3′,2′:4,5]thieno[3,2-d]pyrimidine] | – | 0.002 to 0.05 µM | < 2 µM | – |
| C/C=C/C=C/C(O)c1ccc(-c2nc(C)c3c(n2)sc2c(OCC)nc(N4CCNCC4)nc23)cc1 (centres unmarked) [Example 6, 4-ethoxy-7-(4-[{2E,4E}-1-hydroxyhexa-2,4-dienyl]phenyl)-9-methyl-2-piperazin-1-yl-thieno[2,3-d:4,5-d′]dipyrimidine] | 149 to 150 °C | – | – | – |
| CCOc1nc(N2CCNCC2)nc2c1sc1nc(-c3ccc(-c4cc[nH]c4)cc3)nc(C)c12 [4-Ethoxy-9-methyl-2-piperazin-1-yl-7-(4-[3-pyrrolyl]-phenyl)-thieno[2,3-d:4,5-d′]dipyrimidine] | – | 0.002 to 0.05 µM | < 2 µM | – |
| CCOc1nc(N2CCNCC2)c2oc3nc(-c4ccccc4)cc(C)c3c2n1 [2-Ethoxy-7-phenyl-9-methyl-4-(piperazin-1-yl)-pyrido[3′,2′:4,5]furo[3,2-d]pyrimidine] | 175 °C | 0.002 to 0.05 µM | – | – |
| Nc1nc(F)nc2c1ncn2[C@@H]1O[C@H](CO)[C@@H](O)[C@@H]1O [fludarabine] | – | – | – | cytotoxicity, share of the cells [5]: ≤ 60% |
| CCOc1nc(N2CCNCC2)c2sc3nc(-c4ccc(OC)c(OC)c4)cc(C)c3c2n1 [2-Ethoxy-7-(3,4-dimethoxy-phenyl)-9-methyl-4-(piperazin-1-yl)-pyrido[3′,2′:4,5]thieno[3,2-d]pyrimidine] | – | 0.002 to 0.05 µM | < 2 µM | – |

Continued, in another order:

| melting point | IC50 [1] | IC50 [2] | Structure (SMILES) | also measured |
| --- | --- | --- | --- | --- |
| 131 to 132 °C | 0.002 to 0.05 µM | – | CCOc1nc(N2CCNCC2)nc2c1oc1nc(-c3ccccc3)cc(C)c12 [4-Ethoxy-7-phenyl-9-methyl-2-(piperazin-1-yl)-pyrido[3′,2′:4,5]furo[3,2-d]pyrimidine] | – |
| – | < 0.002 µM | < 2 µM | CCOc1nc(N2CCNCC2)nc2c1sc1nc(-c3ccc(-n4ccnc4)cc3)cc(C(F)(F)F)c12 [4-Ethoxy-7-(4-(1H-imidazol-1-yl)phenyl)-2-(piperazin-1-yl)-9-trifluoromethyl-pyrido[3′,2′:4,5]thieno[3,2-d]pyrimidine] | – |
| – | 0.002 to 0.05 µM | < 2 µM | CCOc1nc(N2CCNCC2)nc2c1sc1nc(-c3cccnc3)cc(C(F)(F)F)c12 [4-Ethoxy-2-piperazin-1-yl-7-(3-pyridyl)-9-trifluoromethyl-pyrido[3′,2′:4,5]thieno[3,2-d]pyrimidine] | – |
| 165 to 166 °C | 0.002 to 0.05 µM | – | C=Cc1ccc(-c2nc(C)c3c(n2)sc2c(OCC)nc(N4CCNCC4)nc23)cc1 [4-Ethoxy-9-methyl-2-piperazin-1-yl-7-(4-vinyl-phenyl)-thieno[2,3-d:4,5-d′]dipyrimidine] | – |
| > 300 °C | 0.002 to 0.05 µM | < 2 µM | CCOc1nc(N2CCNCC2)nc2c1sc1nc(-c3ccc(C(O)CO)cc3)nc(C)c12 (centres unmarked) [7-(4-[1,2-Dihydroxyethyl]-phenyl)-4-ethoxy-9-methyl-2-piperazin-1-yl-thieno[2,3-d:4,5-d′]dipyrimidine] | – |
| – | < 0.002 µM | < 2 µM | CCOc1nc(N2CCNCC2)nc2c1sc1nc(-c3ccc(NC=O)cc3)cc(C(F)(F)F)c12 [N-(4-(4-Ethoxy-9-trifluoromethyl-2-piperazin-1-yl-pyrido[3′,2′:4,5]thieno[3,2-d]pyrimidin-7-yl)-phenyl)-formamide] | – |
| – | 0.002 to 0.05 µM | < 2 µM | CCOc1nc(N2CCNCC2)nc2c1sc1nc(N3CCOCC3)cc(-c3ccccc3)c12 [4-Ethoxy-7-morpholino-9-phenyl-2-(piperazin-1-yl)-pyrido[3′,2′:4,5]thieno[3,2-d]pyrimidine] | – |
| – | < 0.002 µM | < 2 µM | CCOc1nc(N2CCNCC2)nc2c1sc1nc(-c3ccc(NC(=O)c4cccnc4)cc3)cc(C(F)(F)F)c12 [N-(4-(4-Ethoxy-9-trifluoromethyl-2-piperazin-1-yl-pyrido[3′,2′:4,5]thieno[3,2-d]pyrimidin-7-yl)-phenyl)-nicotinamide] | – |
| – | – | < 2 µM | CCOc1nc(N2CCNCC2)nc2c1sc1nc(-c3ccc(OC)c(OC)c3)cc(C)c12.Cl [4-Ethoxy-7-(3,4-dimethoxy-phenyl)-9-methyl-2-(piperazin-1-yl)-pyrido[3′,2′:4,5]thieno[3,2-d]pyrimidine-hydrochloride] | length of induced long processes (axons) [4]: ≤ 300 µm |
| – | 0.002 to 0.05 µM | < 2 µM | CCCOc1nc(N2CCNCC2)nc2c1sc1nc(-c3ccccc3)cc(C)c12 [9-Methyl-7-phenyl-2-(piperazin-1-yl)-4-n-propoxy-pyrido[3′,2′:4,5]thieno[3,2-d]pyrimidine] | – |
| – | < 0.002 µM | < 2 µM | CCOc1nc(N2CCNCC2)nc2c1sc1nc(-c3ccc(C(N)=NO)cc3)cc(C(F)(F)F)c12 [N′-Hydroxy-4-(4-ethoxy-9-trifluoromethyl-2-piperazin-1-yl-pyrido[3′,2′:4,5]thieno[3,2-d]pyrimidin-7-yl)-benzamidine bistrifluoroacetate] | – |
| – | 0.002 to 0.05 µM | < 2 µM | CCOc1nc(N2CCNCC2)nc2c1sc1nc(-c3ccc(F)cc3)cc(C)c12 [4-Ethoxy-7-(4-fluoro-phenyl)-9-methyl-2-(piperazin-1-yl)-pyrido[3′,2′:4,5]thieno[3,2-d]pyrimidine] | – |
